Our source for the IC50 values is patent US20090111778A1, “2-Keto-Oxazoles as Modulators of Fatty Acid Amide Hydrolase” (priority 2005, published 2009).

In one experiment the target is T1, human FAAH (Homo sapiens, UniProt O00519).
T1 construct: expressed in transfected cells
T1 sequence (O00519 1-579): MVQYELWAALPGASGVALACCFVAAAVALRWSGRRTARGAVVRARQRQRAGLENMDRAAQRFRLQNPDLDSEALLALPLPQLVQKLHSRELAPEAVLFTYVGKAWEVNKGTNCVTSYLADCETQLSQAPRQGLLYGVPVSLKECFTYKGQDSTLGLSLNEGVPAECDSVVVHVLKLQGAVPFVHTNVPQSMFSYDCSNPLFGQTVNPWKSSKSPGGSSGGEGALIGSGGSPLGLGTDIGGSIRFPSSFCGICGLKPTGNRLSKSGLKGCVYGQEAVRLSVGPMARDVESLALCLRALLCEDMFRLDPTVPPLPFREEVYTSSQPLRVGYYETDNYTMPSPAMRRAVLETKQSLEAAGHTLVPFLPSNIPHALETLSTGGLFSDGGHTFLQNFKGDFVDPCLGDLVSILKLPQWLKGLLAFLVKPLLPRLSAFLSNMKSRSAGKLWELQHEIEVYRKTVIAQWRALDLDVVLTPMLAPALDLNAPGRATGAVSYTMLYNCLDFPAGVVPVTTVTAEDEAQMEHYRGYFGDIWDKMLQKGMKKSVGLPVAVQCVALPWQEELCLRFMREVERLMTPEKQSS
Nature of the experiment: Assay Method 1: FAAH assay, hydrolysis of 3H-anandamide by homogenate of SK-N-MC cells transfected with human FAAH. Format: biochemical. Particulars: human FAAH; T84 or transfected SK-N-MC cell homogenate; 3H-AEA tracer 80 nM; rt 1 h; pH 9; read-out: Assay 1 IC50. The procedure: A. Transfection of Cells with Human FAAH
(§1) A 10-cm tissue culture dish with a confluent monolayer of SK-N-MC cells was split 2 days (d) prior to transfection. Using sterile technique, the media was removed and the cells were detached from the dish by the addition of trypsin. One fifth of the cells were then placed onto a new 10-cm dish. Cells were grown in a 37° C. incubator with 5% CO2 in Minimal Essential Media Eagle with 10% Fetal Bovine Serum. After 2 d, cells were approximately 80% confluent. These cells were removed from the dish with trypsin and pelleted in a clinical centrifuge. The pellet was re-suspended in 400 μL complete media and transferred to an electroporation cuvette with a 0.4 cm gap between the electrodes. Supercoiled human FAAH cDNA (1 μg) was added to the cells and mixed. The voltage for the electroporation was set at 0.25 kV, and the capacitance was set at 960 μF. After electroporation, the cells were diluted into complete media (10 mL) and plated onto four 10-cm dishes. Because of the variability in the efficiency of electroporation, four different concentrations of cells were plated. The ratios used were 1:20, 1:10, and 1:5, with the remainder of the cells being added to the fourth dish. The cells were allowed to recover for 24 h before adding the selection media (complete media with 600 μg/mL G418). After 10 d, dishes were analyzed for surviving colonies of cells. Dishes with well-isolated colonies were used. Cells from individual colonies were isolated and tested.
The assay mixture consisted of […] of the cell homogenate, 10 μL of the test compound, and 40 μL of anandamide [1-^3H-ethanolamine] (3H-AEA, Perkin-Elmer, 10.3 Ci/mmol), which was added last, for a final tracer concentration of 80 nM. The reaction mixture was incubated at rt for 1 h. During the incubation, 96-well Multiscreen filter plates (catalog number MAFCNOB50; Millipore, Bedford, Mass., USA) were loaded with 25 μL of activated charcoal (Multiscreen column loader, catalog number MACL09625, Millipore) and washed once with 100 μL of MeOH. Also during the incubation, 96-well DYNEX MicroLite plates (catalog number NL510410) were loaded with 100 μL of MicroScint40 (catalog number 6013641, Packard Bioscience, Meriden, Conn., USA). After the 1 h incubation, 60 μL of the reaction mixture were transferred to the charcoal plates, which were then assembled on top of the DYNEX plates using Centrifuge Alignment Frames (catalog number MACF09604, Millipore). The unbound labeled ethanolamine was centrifuged through to the bottom plate (5 min at 2000 rpm), which was preloaded with the scintillant, as described above. The plates were sealed and left at rt for 1 h before counting on a Hewlett Packard TopCount.

Another experiment deals with T2, rat FAAH (Rattus norvegicus, UniProt P97612).
T2 construct: expressed in transfected cells
T2 sequence (P97612 1-579): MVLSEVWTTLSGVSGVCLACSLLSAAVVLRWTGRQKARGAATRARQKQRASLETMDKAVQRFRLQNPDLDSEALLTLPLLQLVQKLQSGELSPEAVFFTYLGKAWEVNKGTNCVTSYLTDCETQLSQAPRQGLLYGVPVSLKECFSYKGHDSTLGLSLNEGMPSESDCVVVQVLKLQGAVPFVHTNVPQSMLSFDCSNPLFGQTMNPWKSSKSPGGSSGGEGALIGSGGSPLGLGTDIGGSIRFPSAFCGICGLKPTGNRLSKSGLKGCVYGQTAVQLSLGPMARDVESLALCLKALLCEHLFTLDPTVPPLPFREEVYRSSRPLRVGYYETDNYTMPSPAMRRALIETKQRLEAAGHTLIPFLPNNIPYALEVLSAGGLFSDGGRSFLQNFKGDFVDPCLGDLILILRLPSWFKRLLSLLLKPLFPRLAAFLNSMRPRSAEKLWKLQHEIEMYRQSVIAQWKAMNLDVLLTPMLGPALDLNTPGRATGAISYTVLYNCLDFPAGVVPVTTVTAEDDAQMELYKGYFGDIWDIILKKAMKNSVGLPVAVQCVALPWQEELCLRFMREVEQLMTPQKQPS
In words: Assay Method 2: FAAH assay, hydrolysis of 3H-anandamide by homogenate of SK-N-MC cells transfected with rat FAAH. Format: biochemical. The following applies: T84 or transfected SK-N-MC cell homogenate, 3H-AEA tracer 80 nM, rt 1 h, pH 9. The method, then:
as §1, with “A. Transfection of Cells with Rat FAAH A 10-cm” for “A 10-cm”, “electrodes. Supercoiled rat FAAH cDNA” for “electrodes. Supercoiled human FAAH cDNA”, “and tested. […] B. FAAH Assay […] The reaction mixture was incubated at rt for 1 h. During the incubation, 96-well Multiscreen filter plates (catalog number MAFCNOB50; Millipore, Bedford, Mass., USA) were loaded with 25 μL of activated charcoal (Multiscreen column loader, catalog number MACL09625, Millipore) and washed once with 100 μL of MeOH. Also during the incubation, 96-well DYNEX MicroLite plates (catalog number NL510410) were loaded with 100 μL of MicroScint40 (catalog number 6013641, Packard Bioscience, Meriden, Conn., USA). After the 1 h incubation, 60 μL of the reaction mixture were transferred to the charcoal plates, which were then assembled on top of the DYNEX plates using Centrifuge Alignment Frames (catalog number MACF09604, Millipore). The unbound labeled ethanolamine was centrifuged through to the bottom plate (5 min at 2000 rpm), which was preloaded with the scintillant, as described above. The plates were sealed and left at rt for 1 h before counting on a Hewlett Packard TopCount.” for “and tested.”

Each structure is given as a SMILES string.

The term IC50 denotes the midpoint of a concentration-inhibition curve. Take `O=C(CCCC1CCN(Cc2cccc(Cl)c2)CC1)c1ncco1` [Example 10, 4-[1-(3-Chloro-benzyl)-piperidin-4-yl]-1-oxazol-2-yl-butan-1-one]: the 50% inhibitory concentration (IC50) at human FAAH amounted to 60 nM; against rat FAAH, 80 nM.
For `O=C(CCCC1CCN(Cc2ccccc2)CC1)c1ncco1` [Example 3, 4-(1-Benzyl-piperidin-4-yl)-1-oxazol-2-yl-butan-1-one] the same measures were 315 nM and 900 nM.
`O=C(CCCC1CCN(C(=O)C2CCCC2)CC1)c1ncco1` [Example 31, 4-(1-Cyclopentanecarbonyl-piperidin-4-yl)-1-oxazol-2-yl-butan-1-one]: the concentration for half-maximal inhibition (IC50) was determined as 106 nM at human FAAH and 288 nM at rat FAAH.
`O=C(CCCC1CCN(CCc2ccccc2)CC1)c1ncco1` [Example 95, 1-Oxazol-2-yl-4-(1-phenethyl-piperidin-4-yl)-butan-1-one] registered a half-inhibitory concentration (IC50) against rat FAAH of 1200 nM.
On to `O=C(CCCC1CCN(C(=O)OCCOCc2ccccc2)CC1)c1ncco1` [Example 66, 4-(4-Oxazol-2-yl-4-oxo-butyl)-piperidine-1-carboxylic acid 2-benzyloxy-ethyl ester], for which the IC50 at human FAAH was found to be 0.7 nM; on rat FAAH, 2 nM.
For `CCCCCCCN1CCC(CCCC(=O)c2ncco2)CC1` [Example 126, 4-(1-Heptyl-piperidin-4-yl)-1-oxazol-2-yl-butan-1-one] the same measures were 23 nM and 810 nM.
In the case of `O=C(CCCC1CCN(S(=O)(=O)c2ccc(Cl)c(Cl)c2)CC1)c1ncco1` [Example 62, 4-[1-(3,4-Dichloro-benzenesulfonyl)-piperidin-4-yl]-1-oxazol-2-yl-butan-1-one], the 50% inhibitory concentration (IC50) at human FAAH was 14 nM; against rat FAAH, 110 nM.
Consider `O=C(CCCC1CCN(S(=O)(=O)Cc2ccccc2)CC1)c1ncco1` [Example 53, 1-Oxazol-2-yl-4-(1-phenylmethanesulfonyl-piperidin-4-yl)-butan-1-one], for which the IC50 is 600 nM at human FAAH and 800 nM on rat FAAH.
Take `O=C(CCCC1CCN(Cc2c(F)cc(F)cc2F)CC1)c1ncco1` [Example 123, 1-Oxazol-2-yl-4-[1-(2,4,6-trifluoro-benzyl)-piperidin-4-yl]-butan-1-one]: the IC50 at human FAAH stood at 200 nM; on rat FAAH, 280 nM.
On to `COC(=O)c1cccc(-c2cnc(C(=O)CCCC3CCN(Cc4ccc(C(C)C)cc4)CC3)o2)n1` [Example 147, 6-(2-[4-{1-(4-Isopropyl-benzyl)-piperidin-4-yl]-butyryl}-oxazol-5-yl)-pyridine-2-carboxylic acid methyl ester], for which the IC50 on human FAAH stood at 18 nM; against rat FAAH, 8 nM.
For `O=C(CCCC1CCN(Cc2ccc3c(c2)OCO3)CC1)c1ncco1` [Example 14, 4-(1-Benzo[1,3]dioxol-5-ylmethyl-Piperidin-4-yl)-1-oxazol-2-yl-butan-1-one], the half-inhibitory concentration (IC50) was 86 nM at human FAAH and 1000 nM against rat FAAH.
For `O=C(CCCC1CCN(Cc2cccc(-c3ccccc3)c2)CC1)c1ncco1` [Example 72, 4-(1-Biphenyl-3-ylmethyl-piperidin-4-yl)-1-oxazol-2-yl-butan-1-one] the same measures were 0.9 nM and 2 nM.
For `O=C(CCCC1CCN(Cc2ccc(-c3ccccc3)c(F)c2)CC1)c1ncco1` [Example 138, 4-[1-(2-Fluoro-biphenyl-4-ylmethyl)-piperidin-4-yl]-1-oxazol-2-yl-butan-1-one] the same measures were 71 nM and 113 nM.
As to `CC(C)(C)c1ccc(CN2CCC(CCCC(=O)c3ncco3)CC2)cc1` [Example 83, 4-[1-(4-tert-Butyl-benzyl)-piperidin-4-yl]-1-oxazol-2-yl-butan-1-one], the concentration for half-maximal inhibition (IC50) on human FAAH is 7 nM; against rat FAAH, 84 nM.
Consider `O=C(CCCC1CCN(CC2CCCCC2)CC1)c1ncco1` [Example 86, 4-(1-Cyclohexylmethyl-piperidin-4-yl)-1-oxazol-2-yl-butan-1-one], for which the IC50 at human FAAH was found to be 9500 nM.
With `Cc1cc(CC(=O)N2CCC(CCCC(=O)c3ncco3)CC2)on1` [Example 43, 4-{1-[2-(3-Methyl-isoxazol-5-yl)-acetyl]-piperidin-4-yl}-1-oxazol-2-yl-butan-1-one], at human FAAH, the IC50 stood at 4000 nM.
The same measure, in the same setting: the figure for `O=C(CCCC1CCN(Cc2ccccn2)CC1)c1ncco1` [Example 4, 1-Oxazol-2-yl-4-(1-pyridin-2-ylmethyl-piperidin-4-yl)-butan-1-one] is 3000 nM.
For the compound `COc1ccccc1CN1CCC(CCCC(=O)c2ncco2)CC1` [Example 87, 4-[1-(2-Methoxy-benzyl)-piperidin-4-yl]-1-oxazol-2-yl-butan-1-one], on human FAAH, the half-maximal inhibitory concentration (IC50) came to 4000 nM.
Same read-out and setting: the figure for `O=C(CCCC1CCN(Cc2ccc(N3CCOCC3)cc2)CC1)c1ncco1` [Example 106, 4-[1-(4-Morpholin-4-yl-benzyl)-piperidin-4-yl]-1-oxazol-2-yl-butan-1-one] is 2000 nM.
